Where two headings read alike, the source gives them in different places.
Columns and labels:
[1] = tested on: leukemic CEM cells; assay: Killing of leukemic CEM T-cells (DNA fragmentation); format: cell-based
[2] = tested on: RNAPII C-terminal domain Ser2 phosphorylation; assay: Phenylephrine-induced phosphorylation of RNAPII in ventricular cardiac myocytes; format: cell-based, rat
Source text: To test Wogonin in hypertrophic conditions, ventricular cardiac myocytes from neonatal rats were isolated. Hypertrophy was induced by stimulating the cells (cardiomyocytes) with phenylephrine.

[3] = tested on: normal proliferating T cells (d6 T cells)
Procedure: Apoptotic cell death was determined by DNA fragmentation after 48 hours.
Since proliferating cells are in general more susceptible to drug-induced apoptotic cell death, the T cells were activated through PHA stimulation and cultured for further 5 days under supplementation of IL-2 (so called d6 T cells).

[4] = molecular target: CDK4 (Homo sapiens, UniProt P11802); assay: Inhibition of the kinase CDK4; format: biochemical
Procedure: (§1) Contrary to this, the known compound Quercetin does inhibit the kinases CDK4 and CDK6 (applied at a dose of 50 µM).

[5] = molecular target: CDK6 (Homo sapiens, UniProt Q00534); assay: Inhibition of the kinase CDK6; format: biochemical
Procedure: as §1

[6] = tested on: ventricular cardiac myocytes; assay: Tolerance of the compound by ventricular cardiac myocytes; format: cell-based, rat; settings: even at higher doses
Source text: To test Wogonin in hypertrophic conditions, ventricular cardiac myocytes from neonatal rats were isolated.

[7] = molecular target: CDK2 (Homo sapiens, UniProt P24941); assay: Inhibition of the cellular kinase CDK2; format: biochemical
Procedure: The amount of phosphorylated substrate was determined by Western Blot using phospho-specific antibodies.

[8] = molecular target: T1, CDK9 (Homo sapiens, UniProt P50750); assay: Duration of the inhibitory effect on CDK9 in CEM; format: cell-based; settings: dose of 50 μM in CEM
T1 construct: endogenous in cells; host or cells: CEM
T1 sequence (P50750 whole entry): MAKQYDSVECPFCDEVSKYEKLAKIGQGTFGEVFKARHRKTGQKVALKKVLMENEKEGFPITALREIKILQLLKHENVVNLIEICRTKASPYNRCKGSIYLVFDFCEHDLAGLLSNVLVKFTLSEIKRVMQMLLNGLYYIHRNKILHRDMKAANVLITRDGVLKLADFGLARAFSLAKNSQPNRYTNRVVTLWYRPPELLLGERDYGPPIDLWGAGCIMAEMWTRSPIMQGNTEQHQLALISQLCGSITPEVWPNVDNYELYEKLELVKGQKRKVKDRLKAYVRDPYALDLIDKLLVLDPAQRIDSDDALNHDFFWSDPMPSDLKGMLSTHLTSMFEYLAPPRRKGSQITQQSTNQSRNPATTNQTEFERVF
T1 sequence (O60563 whole entry partner): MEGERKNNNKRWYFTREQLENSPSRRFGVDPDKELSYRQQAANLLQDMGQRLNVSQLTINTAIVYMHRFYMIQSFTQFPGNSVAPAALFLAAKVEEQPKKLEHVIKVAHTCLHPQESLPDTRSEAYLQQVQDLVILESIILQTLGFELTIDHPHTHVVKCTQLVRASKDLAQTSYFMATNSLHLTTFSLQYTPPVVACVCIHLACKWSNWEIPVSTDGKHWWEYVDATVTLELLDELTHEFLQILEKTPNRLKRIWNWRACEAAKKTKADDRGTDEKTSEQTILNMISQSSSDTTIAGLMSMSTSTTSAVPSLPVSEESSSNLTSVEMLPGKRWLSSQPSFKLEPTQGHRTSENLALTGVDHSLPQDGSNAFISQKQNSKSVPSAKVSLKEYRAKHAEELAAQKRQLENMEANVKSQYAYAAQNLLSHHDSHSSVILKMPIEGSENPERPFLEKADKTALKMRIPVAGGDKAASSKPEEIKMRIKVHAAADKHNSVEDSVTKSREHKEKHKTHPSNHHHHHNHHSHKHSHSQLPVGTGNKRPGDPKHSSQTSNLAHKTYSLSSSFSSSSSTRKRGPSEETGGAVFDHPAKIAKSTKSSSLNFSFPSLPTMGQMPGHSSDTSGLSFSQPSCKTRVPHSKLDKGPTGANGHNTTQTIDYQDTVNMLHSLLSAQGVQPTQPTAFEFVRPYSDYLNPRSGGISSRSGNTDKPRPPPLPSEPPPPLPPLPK

Chain of CDK4 (P11802 whole entry, species assumed): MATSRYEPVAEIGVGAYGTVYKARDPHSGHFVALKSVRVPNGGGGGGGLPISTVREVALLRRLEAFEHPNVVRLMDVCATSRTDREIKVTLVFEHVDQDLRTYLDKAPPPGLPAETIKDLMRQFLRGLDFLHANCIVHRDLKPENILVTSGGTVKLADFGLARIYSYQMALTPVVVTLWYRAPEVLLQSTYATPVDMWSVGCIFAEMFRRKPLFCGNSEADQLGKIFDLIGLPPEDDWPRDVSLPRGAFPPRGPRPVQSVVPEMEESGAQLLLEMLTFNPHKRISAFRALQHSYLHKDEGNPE
Chain of CDK6 (Q00534 whole entry, species assumed): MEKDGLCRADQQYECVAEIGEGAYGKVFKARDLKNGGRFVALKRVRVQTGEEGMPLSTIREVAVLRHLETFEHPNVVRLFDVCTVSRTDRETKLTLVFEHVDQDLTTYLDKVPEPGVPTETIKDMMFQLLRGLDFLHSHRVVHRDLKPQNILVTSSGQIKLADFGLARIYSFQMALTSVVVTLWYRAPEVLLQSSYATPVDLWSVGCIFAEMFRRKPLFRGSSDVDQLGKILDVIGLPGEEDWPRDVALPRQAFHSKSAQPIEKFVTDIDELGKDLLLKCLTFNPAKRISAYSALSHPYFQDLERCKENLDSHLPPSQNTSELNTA

Row | Structure (SMILES) | concentration required to kill leukemic cells [1] | inhibition of phosphorylation of the RNAPII C-terminal domain at Ser2 (in words) ([2]; no concentration or cell type given) | DNA-fragmentation ([3]; human, 48 h, 10 μM) | inhibition of CDK4 (in words) ([4]; applied at a dose of 50 μM) | inhibition of CDK6 (in words) ([5]; applied at a dose of 50 μM) | DNA-fragmentation ([3]; T-cells, 48 hours, dose of 10 μM) | DNA-fragmentation compared with Quercetin (in words) ([3]; T-cells, 48 hours, doses of 10 μM, 50 μM and 100 μM) | toxicity to normal T cells compared to other flavones tested (in words) ([3]; d6 T cells) | toxicity to normal proliferating T cells (in words) ([3]; up to concentrations of 100 μM, in comparison to leukemic CEM cells) | inhibition of CDK4 (in words) ([4]; no concentration given) | tolerance by the cells (in words) [6] | inhibition of CDK2 (in words) [7] | inhibition of phenylephrine-induced phosphorylation of RNAPII (in words) ([2]; neonatal rat cardiomyocytes, 50 μM in a solution) | inhibition of CDK6 (in words) ([5]; no concentration given) | duration of inhibitory effect on CDK9 compared with Quercetin (in words) [8]
1 | CN1CC[C@H](c2c(O)cc(O)c3c(=O)cc(-c4ccccc4Cl)oc23)[C@H](O)C1 [Flavopiridol, reference compound] | ~500 nM | inhibits phosphorylation | – | – | – | – | – | – | – | – | – | – | – | – | –
2 | O=c1c(O)c(-c2ccc(O)c(O)c2)oc2cc(O)cc(O)c12 [Quercetin, reference compound] | – | – | more than 15% | does inhibit | does inhibit | – | – | – | – | – | – | – | – | – | –
3 | COc1c(O)cc(O)c2c(=O)cc(-c3ccccc3)oc12 [Wogonin, 5,7-Dihydroxy-8-methoxy-flavone] | – | – | – | do not inhibit | do not inhibit | less than 5% | much less DNA-fragmentation | particularly low toxicity | no or very low toxicity | does not strongly inhibit | well supported by the cells | does not strongly inhibit | almost completely inhibited | does not strongly inhibit | much longer inhibitory effect

Reference: patent publication US20130225530A1 (priority 2010, published 2013)
